Assay results from the supplement of paper PMC10307832.

How the values were obtained:
Test in all cases: relative viability (nuclei count vs DMSO), 5 days (fraction); higher = more cells survive
[1] = test system: NCI-H2347
Outline: (§1)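 Relative viability was taken as the ratio of nuclei in treated wells to nuclei in vehicle wells. Lung cancer cell lines in 1536-well plates received compounds by pin tool one day after seeding, either one drug alone or a fixed anchor-drug dose plus five library-drug doses (not always all listed) in √10 steps. Nuclei were counted on 4× images after 5 days of treatment, and values are medians of duplicate plates.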

[2] = test system: NCI-H661
Outline: as §1

[3] = test system: NCI-H596
Outline: as §1

[4] = test system: SK-MES-1
Outline: as §1

[5] = test system: NCI-H1651
Outline: as §1

[6] = test system: NCI-H1563
Outline: as §1

[7] = test system: NCI-H1755
Outline: as §1

[8] = test system: RERF-LC-KJ
Outline: as §1

[9] = test system: PC-14
Outline: as §1

[10] = test system: NCI-H1915
Outline: as §1

[11] = test system: NCI-H1355
Outline: as §1

[12] = test system: NCI-H520
Outline: as §1

[13] = test system: NCI-H3122
Outline: as §1

[14] = test system: NCI-H727
Outline: as §1

[15] = test system: LXF-289
Outline: as §1

[16] = test system: NCI-H460
Outline: as §1

[17] = test system: NCI-H1792
Outline: as §1

[18] = test system: NCI-H322M
Outline: as §1

How did the relative viability ([1]; first compound 0.04 µM) turn out when `Cc1sc2c(c1C)C(c1ccc(Cl)cc1)=N[C@@H](CC(=O)OC(C)(C)C)c1nnc(C)n1-2` [JQ1] + CS(=O)(=O)CCNCc1ccc(-c2ccc3ncnc(Nc4ccc(OCc5cccc(F)c5)c(Cl)c4)c3c2)o1 [Lapatinib] (partner 2 µM) was run?
The relative viability was 0.934.

What about the relative viability ([1]; first compound 0.1265 µM) of the same compound?
Its relative viability is 0.623.

What about the relative viability ([1]; first compound 0.4 µM) of the same compound?
Its relative viability is 0.831.

And the relative viability ([1]; first compound 1.265 µM)?
The relative viability was 0.701.

What about the relative viability ([1]; first compound 4 µM) of the same compound?
The relative viability was 0.679.

And the relative viability ([2]; first compound 0.04 µM)?
Its relative viability is 0.402.

What about the relative viability ([2]; first compound 0.1265 µM) of the same compound?
Its relative viability is 0.527.

And the relative viability ([2]; first compound 0.4 µM)?
The relative viability was 0.339.

What about the relative viability ([2]; first compound 1.265 µM) of the same compound?
The relative viability was 0.27.

And the relative viability ([2]; first compound 4 µM)?
Its relative viability is 0.321.

What about the relative viability ([3]; first compound 0.04 µM) of the same compound?
Its relative viability is 1.07.

And the relative viability ([3]; first compound 0.1265 µM)?
The relative viability was 0.956.

And the relative viability ([3]; first compound 0.4 µM)?
Its relative viability is 0.887.

What about the relative viability ([3]; first compound 1.265 µM) of the same compound?
Its relative viability is 0.546.

What about the relative viability ([3]; first compound 4 µM) of the same compound?
The relative viability was 0.415.

And the relative viability ([4]; first compound 0.04 µM)?
Its relative viability is 0.455.

And the relative viability ([4]; first compound 0.1265 µM)?
Its relative viability is 0.436.

And the relative viability ([4]; first compound 0.4 µM)?
The relative viability was 0.361.

And the relative viability ([4]; first compound 1.265 µM)?
The relative viability was 0.292.

And the relative viability ([4]; first compound 4 µM)?
The relative viability was 0.274.

And the relative viability ([5]; first compound 0.04 µM)?
The relative viability was 0.656.

And the relative viability ([5]; first compound 0.1265 µM)?
The relative viability was 0.706.

What about the relative viability ([5]; first compound 0.4 µM) of the same compound?
Its relative viability is 0.481.

What about the relative viability ([5]; first compound 1.265 µM) of the same compound?
Its relative viability is 0.365.

And the relative viability ([5]; first compound 4 µM)?
The relative viability was 0.408.

And the relative viability ([6]; first compound 0.04 µM)?
The relative viability was 0.89.

And the relative viability ([6]; first compound 0.1265 µM)?
The relative viability was 0.72.

What about the relative viability ([6]; first compound 0.4 µM) of the same compound?
Its relative viability is 0.662.

And the relative viability ([6]; first compound 1.265 µM)?
Its relative viability is 0.717.

What about the relative viability ([6]; first compound 4 µM) of the same compound?
Its relative viability is 0.771.

And the relative viability ([7]; first compound 0.04 µM)?
The relative viability was 1.06.

What about the relative viability ([7]; first compound 0.1265 µM) of the same compound?
Its relative viability is 0.735.

What about the relative viability ([7]; first compound 0.4 µM) of the same compound?
The relative viability was 1.05.

And the relative viability ([7]; first compound 1.265 µM)?
Its relative viability is 0.853.

And the relative viability ([7]; first compound 4 µM)?
Its relative viability is 0.607.

What about the relative viability ([8]; first compound 0.04 µM) of the same compound?
The relative viability was 0.807.

And the relative viability ([8]; first compound 0.1265 µM)?
The relative viability was 0.856.

What about the relative viability ([8]; first compound 0.4 µM) of the same compound?
The relative viability was 0.89.

What about the relative viability ([8]; first compound 1.265 µM) of the same compound?
The relative viability was 0.781.

And the relative viability ([8]; first compound 4 µM)?
Its relative viability is 0.595.

And the relative viability ([9]; first compound 0.04 µM)?
Its relative viability is 0.307.

What about the relative viability ([9]; first compound 0.1265 µM) of the same compound?
The relative viability was 0.245.

What about the relative viability ([9]; first compound 0.4 µM) of the same compound?
Its relative viability is 0.352.

What about the relative viability ([9]; first compound 1.265 µM) of the same compound?
Its relative viability is 0.284.

What about the relative viability ([9]; first compound 4 µM) of the same compound?
Its relative viability is 0.211.

What about the relative viability ([10]; first compound 0.04 µM) of the same compound?
The relative viability was 0.976.

What about the relative viability ([10]; first compound 0.1265 µM) of the same compound?
The relative viability was 0.574.

What about the relative viability ([10]; first compound 0.4 µM) of the same compound?
Its relative viability is 0.917.

What about the relative viability ([10]; first compound 1.265 µM) of the same compound?
The relative viability was 0.582.

And the relative viability ([10]; first compound 4 µM)?
The relative viability was 0.315.

What about the relative viability ([11]; first compound 0.04 µM) of the same compound?
Its relative viability is 0.967.

And the relative viability ([11]; first compound 0.1265 µM)?
The relative viability was 0.973.

What about the relative viability ([11]; first compound 0.4 µM) of the same compound?
Its relative viability is 0.956.

And the relative viability ([11]; first compound 1.265 µM)?
Its relative viability is 0.765.

And the relative viability ([11]; first compound 4 µM)?
Its relative viability is 0.596.

And the relative viability ([12]; first compound 0.04 µM)?
The relative viability was 0.874.

And the relative viability ([12]; first compound 0.1265 µM)?
The relative viability was 0.895.

And the relative viability ([12]; first compound 0.4 µM)?
Its relative viability is 0.716.

What about the relative viability ([12]; first compound 1.265 µM) of the same compound?
The relative viability was 0.264.

What about the relative viability ([12]; first compound 4 µM) of the same compound?
The relative viability was 0.243.

What about the relative viability ([13]; first compound 0.04 µM) of the same compound?
The relative viability was 0.996.

What about the relative viability ([13]; first compound 0.1265 µM) of the same compound?
Its relative viability is 0.974.

What about the relative viability ([13]; first compound 0.4 µM) of the same compound?
Its relative viability is 0.981.

What about the relative viability ([13]; first compound 1.265 µM) of the same compound?
Its relative viability is 1.02.

What about the relative viability ([13]; first compound 4 µM) of the same compound?
The relative viability was 0.876.

What about the relative viability ([14]; first compound 0.04 µM) of the same compound?
Its relative viability is 0.727.

What about the relative viability ([14]; first compound 0.1265 µM) of the same compound?
Its relative viability is 0.695.

And the relative viability ([14]; first compound 0.4 µM)?
Its relative viability is 0.506.

And the relative viability ([14]; first compound 1.265 µM)?
Its relative viability is 0.361.

What about the relative viability ([14]; first compound 4 µM) of the same compound?
The relative viability was 0.469.

What about the relative viability ([15]; first compound 0.04 µM) of the same compound?
Its relative viability is 0.915.

And the relative viability ([15]; first compound 0.1265 µM)?
The relative viability was 0.862.

What about the relative viability ([15]; first compound 0.4 µM) of the same compound?
The relative viability was 0.917.

And the relative viability ([15]; first compound 1.265 µM)?
Its relative viability is 0.851.

And the relative viability ([15]; first compound 4 µM)?
The relative viability was 0.704.

What about the relative viability ([16]; first compound 0.04 µM) of the same compound?
The relative viability was 0.887.

And the relative viability ([16]; first compound 0.1265 µM)?
The relative viability was 0.465.

And the relative viability ([16]; first compound 0.4 µM)?
Its relative viability is 0.536.

And the relative viability ([16]; first compound 1.265 µM)?
Its relative viability is 0.217.

What about the relative viability ([16]; first compound 4 µM) of the same compound?
The relative viability was 0.169.

What about the relative viability ([17]; first compound 0.04 µM) of the same compound?
Its relative viability is 0.947.

And the relative viability ([17]; first compound 0.4 µM)?
Its relative viability is 0.916.

And the relative viability ([17]; first compound 1.265 µM)?
Its relative viability is 0.896.

What about the relative viability ([17]; first compound 4 µM) of the same compound?
The relative viability was 0.688.

And the relative viability ([18]; first compound 0.04 µM)?
Its relative viability is 0.634.

What about the relative viability ([18]; first compound 0.1265 µM) of the same compound?
Its relative viability is 0.658.

And the relative viability ([18]; first compound 0.4 µM)?
Its relative viability is 0.572.

And the relative viability ([18]; first compound 1.265 µM)?
Its relative viability is 0.506.

And the relative viability ([18]; first compound 4 µM)?
Its relative viability is 0.467.
